The record followed here is paper PMC9241695, “Selective Metal Chelation by a Thiosemicarbazone Derivative Interferes with Mitochondrial Respiration and Ribosome Biogenesis in Candida albicans” (Microbiology Spectrum, 2022).

In brackets after ≈: the same amount, converted by molar mass.

The subject of one data set is A. fumigatus AF293. In words: Antifungal susceptibility testing, microbroth dilution MIC. In kind it is cell-based. The settings on record: Aspergillus fumigatus, AF293; standard strain of A. fumigatus; 48 h; read-out: MIC (μg/mL) against fungi AF293. An outline of the steps: (§1)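 CLSI microbroth dilution in RPMI1640, final drug range 0.0156–64 μg/mL. Inocula 1 × 10^3 CFU/mL for C. albicans and C. neoformans, 1 × 10^4 CFU/mL for A. fumigatus; 35°C for 24 h (C. albicans) or 48 h (C. neoformans, A. fumigatus). MIC read as visible growth inhibition versus control, in duplicate.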

The test system of a further data set is C. neoformans H99. The data set is described as above. The settings on record: Cryptococcus neoformans, H99; C. neoformans wild-type strain; 48 h; read-out: MIC (μg/mL) against fungi H99. The class given is cell-based. An outline of the steps: as §1
Data set [1] is described as follows: Cytotoxicity testing (MTT). In kind it is cell-based, human. The settings on record: human, 48 h, MTT. The procedure:
(§2) h (for C. albicans, C. krusei, C. tropicalis, C. parapsilosis) or 48 h (for C. neoformans, A. fumigatus). The MIC was determined based on visible growth inhibition compared with the control. All experiments were performed in duplicate.
(§3) Cytotoxicity testing. The cell lines HK2 and 16HBE were used to evaluate the cytotoxicity of 19ak, 19k and 19t. Cells in DMEM containing 10% fetal bovine serum (Gibco) were seeded in 96-well tissue culture plates at a cell density of 1 × 10^4 cells/mL and incubated for 24 h to allow adhesion. The supernatant was then replaced with fresh DMEM containing various concentrations of 19ak, 19k and 19t. The plates were subsequently incubated for an additional 48 h at 37°C with 5% CO2, followed by the addition of 10 μL of MTT solution to each well and incubation at 37°C for 4 h.
(§4) The effects of the compounds on cell proliferation were detected by measuring the absorbance at 570 nm in a microplate reader (BioTek, VT, USA). Three independent experiments were conducted. […]

The test system of data set [2] is human bronchial epithelial cell line 16HBE. In words: Cytotoxicity testing (MTT). In kind it is cell-based. The settings on record: ratio of IC50 against 16HBE to MIC80 against C. albicans SC5314. The procedure: as §2, §3, §4
For data set [3], the system named is human renal epithelial cell line HK2. In words: Cytotoxicity testing (MTT). The class given is cell-based. The settings on record: ratio of IC50 against HK2 to MIC80 against C. albicans SC5314. The procedure:
as §2, §3, §4

The nature of data set [4]: Cytotoxicity testing (MTT). As to conditions: human, HepG2 cells (hepatocellular carcinoma cell line). The class given is cell-based, human.
For data set [5], the system named is human hepatocellular carcinoma cell line HepG2. In words: Cytotoxicity testing (MTT). The class given is cell-based. As to conditions: ratio of IC50 against HepG2 to MIC80 against C. albicans SC5314.
Another data set relates to C. albicans SC5314 cells. In words: Intracellular labile zinc levels using Zinbo-5. In kind it is cell-based, Candida albicans. The settings on record: 6 h. As to the method:
C. albicans SC5314 cells grown overnight were pelleted, washed three times with PBS buffer, and resuspended to obtain an OD600 of 2.0. Next, the cells were incubated with various concentrations of 19ak in 96-well plates at 30°C for 6 h, followed by incubation with 10 μM Zinbo-5 for 30 min. Finally, fluorescence was measured in a microplate reader (excitation at 355 nm, emission at 485 nm). Similar approach was used in detection of intracellular zinc levels of mammalian cells.

The subject of another data set is 16HBE. In words: Intracellular ferrous and zinc contents in mammalian cells (FeRhoNox-1, Zinbo-5). The class given is cell-based, human. The settings on record: 5 μg/mL, 12 h. The procedure:
(§5) FeRhoNox-1 is a commercially available fluorescent probe that specifically binds Fe^2+ and is used to measure intracellular Fe^2 + content. C. albicans SC5314 cells cultured overnight were diluted to roughly 1 × 10^6 cells/mL in RPMI 1640 medium and challenged with various doses of 19ak for 6 h. Next, the cells were fixed with 4% paraformaldehyde for 1 h. After washing three times with PBS, the cells were stained with 5 μM FeRhoNox-1 for 30 min and analyzed by flow cytometry (Becton, Dickinson, CA, USA). Mammalian cells culture is according to the method described in Cytotoxicity testing which was described in Supplemental material in detail. After 12 h of treatment with different concentrations of 19ak, the supernatant was discarded and washed three times with PBS. Cells were collected after staining with FeRhoNox-1 for 30 min in the dark, and the fluorescence intensity of stained cells was analyzed by flow cytometry.
(§6) C. albicans SC5314 cells grown overnight were pelleted, washed three times with PBS buffer, and resuspended to obtain an OD600 of 2.0. Next, the cells were incubated with various concentrations of 19ak in 96-well plates at 30°C for 6 h, followed by incubation with 10 μM Zinbo-5 for 30 min. Finally, fluorescence was measured in a microplate reader (excitation at 355 nm, emission at 485 nm). […]

In a further data set the test system is HepG2. The description is as above. The class given is cell-based, human. The settings on record: 5 μg/mL, 12 h. As to the method: as §5, §6
A further data set relates to C. albicans SC5314. In words: CCK-8 reduction assay, mitochondrial dehydrogenase activity. In kind it is cell-based, Candida albicans. The settings on record: 0.125 μg/mL to 5 μg/mL. The procedure:
The Cell Counting Kit-8
(CCK-8) assay is used to measure the dehydrogenase activity in the mitochondria of C. albicans or mammalian cells. C. albicans SC5314 (5 × 10^6 cells/mL in RPMI1640 medium) were treated with different concentrations of 19ak in 96-well plates at 30°C for 12 h or 48 h. 10 μL of CCK-8 solution was added to each well. After an additional 2 h of incubation, OD450 in each well was detected with a microplate reader. […]

The test system of the next data set is G. mellonella. In words: Toxicity of 19ak in G. mellonella larvae. The class given is in vivo, Galleria mellonella. As to conditions: 10 μg per larva, 4 days. The procedure:
Larvae of normal size and in good condition were injected with 10 μL of 19ak (1 mg/mL) or PBS. The survival of the larvae was monitored daily for 4 days.

Take `C/C(=N\NC(=S)N(C)C)c1ccccn1` [Compound 19ak]: the MIC with A. fumigatus AF293 and with C. neoformans H99 was 0.5 µg/mL (≈ 2.25 µM) each time. Further, the IC50 at 48 h in data set [1] (16HBE cells (bronchial epithelial cell line), 16HBE cells) worked out at 6.97 µg/mL (≈ 31.4 µM); in [1] (HK2 cells (renal epithelial cell line), HK2 cells), 26.8 µg/mL (≈ 121 µM). Moreover, the “Selectivity index 16HBE” value in data set [2] is 55.78. Further, the “Selectivity index HK2” value in data set [3] was found to be 214.32. The compound further gave an IC50 in data set [4] of 10.3 µg/mL (≈ 46.3 µM). Moreover, the “Selectivity index HepG2” value in data set [5] is given as 82.4. In the data set with C. albicans SC5314 cells (0.125 μg/mL), the “Labile zinc ions (Zinbo-5 fluorescence)” value is on record as “decreased”. The “Reduction of intracellular zinc ions” value in the data set on C. albicans SC5314 cells (1 μg/mL) is “approximately 59.6%”. The “Ferrous and zinc contents in 16HBE cells” value in the data set on 16HBE is given as “almost had no effects”. The “Ferrous and zinc contents in HepG2 cells” value with HepG2 is listed as “almost had no effects”. Moreover, the “Mitochondrial dehydrogenase activity of C. albicans (CCK-8, absorbance at 450 nm)” value in the data set on C. albicans SC5314 is given as “decreased accordingly in a dose-dependent manner”. Besides, the “Survival of uninfected larvae (toxicity)” value with G. mellonella is “all treated larvae were still alive”.
